Experimental data: patent US7122668B2, “Platinum complexes and their use in therapy” (priority 2002, dated 2006)
Read-outs that look alike come from different tables or passages of the source.

Tests used:
CH1 = assay: Microculture tetrazolium (MTS) cell survival assay; type: cell-based; conditions: 24 hours incubation
Method: (§1) Cytotoxicity of the synthesized complexes was also tested by the MTS method^(21). Accordingly, the compounds were incubated for 24 hours with the corresponding cell lines and the cell survival in compound-treated cultures was evaluated.
(§2) The complexes were incubated for 24 hours with the above mentioned cell lines and the cell survival in compound-treated cultures was evaluated by the (microculture tetrazolium) MTS method as previously reported.

calf thymus DNA = assay: DNA binding (calf thymus DNA platination); conditions: for t1/2 half time of the binding to calf thymus DNA: 10 mM NaClO4, 37° C., ri = 0.08, differential pulse polarography; for ΔTm, 0.01M Na+ / ΔTm, 0.2 M / ΔΔεmax, maximum of the positive CD band at around 275 nm: rb = 0.05; for ΔΔεmax, maximum of the positive CD band at around 275 nm: difference between control and platinated DNA
Method: The formation of calf thymus DNA platination was also examined. To this end, calf thymus DNA was incubated with different compounds (Table 3) in which the following parameters were determined: […]

41M = assay: Microculture tetrazolium (MTS) cell survival assay; type: cell-based; conditions: 24 hours incubation
Method: as §1, §2

CH1cisR = assay: Microculture tetrazolium (MTS) cell survival assay; type: cell-based; conditions: for IC50: 24 hours incubation, MTS; for resistance factor (IC50 resistant/IC50 sensitive): CH1cisR/CH1
Method: as §1, §2

A2780cisR = assay: Microculture tetrazolium (MTS) cell survival assay; type: cell-based; conditions: for IC50: 24 hours incubation, MTS; for resistance factor (IC50 resistant/IC50 sensitive): A2780cisR/A2780
Method: as §1, §2

A2780 = assay: Microculture tetrazolium (MTS) cell survival assay; type: cell-based; conditions: 24 hours incubation
Method: as §1, §2

41McisR = assay: Microculture tetrazolium (MTS) cell survival assay; type: cell-based; conditions: for resistance factor (IC50 resistant/IC50 sensitive): 41McisR/41M; for IC50: 24 hours incubation, MTS
Method: as §1, §2

OV-1063 cells [1] = assay: Methylene blue (MB) assay of cell survival; type: cell-based, human; conditions: mean ± SD
Method: (§3) A human ovarian carcinoma cell line (OV-1063), established at the Hadassah University hospital and human colon carcinoma cell line (C-26) were maintained in RPMI-1640 medium supplemented with 10% FCS, antibiotics and glutamine. All culture medium components were purchased from Biological Industries (Beit-HaEmek, Israel). Both cell lines were maintained at 37° C. in a water-jacketed CO2 incubator.
(§4) Cytotoxicity of the synthesized complexes was tested by the methylene blue (MB) staining assay^(19). A fixed number of exponentially growing cells in 200 μl medium were plated in 96-microwell, flat-bottomed plates. For each of the complexes tested, 4 well were used. Following 24 hr in culture, 20 μl of different concentration of the complexes were added to each well containing untreated cells. Normal saline was added to the controls. Cells were exposed to complexes for 4, 24, or 72 hr. At the end of exposure for a fixed time interval, the treated cells as well as parallel control cells were washed and incubation was continued in fresh medium until termination of the experiment. Following 72 hr of growth, cells were fixed by adding 50 μl of 2.5% of glutaraldehyde to each well for 15 min. Fixed cells were rinsed 10 times with fresh de-ionized water and once with borate buffer (0.1 M, pH=8.5), dried and stained with MB (100 μl of 1% solution in 0.1 M borate buffer, pH=8.5) for 1 hr at room temperature. Stained cells were rinsed thoroughly with de-ionized water to remove any non-cell-bound die and then dried. The MB bound to the fixed cells was extracted by incubation at 37° C. with 200 μl of 0.1N HCl for 1 hr, and the net optical density (OD) of the die in each well was determined by a plate spectrophotometer (Labsystems Multyskan BICHROMATIC, Finland) at 620 nm.

OV-1063 cells [2] = assay: Platinum complex intracellular accumulation (FAAS); type: cell-based, human; conditions: OV-1063, 24 hr
Method: (§5) Cells were seeded for 48 hr before one of the complexes was added to the culture medium. After 24 hr of exposure, the complexes were removed and the cells washed twice with ice-cold PBS and pelleted. The cells (1*10^6) were dried and mineralized by heating for 10 min in 65% HNO3 (BDH, England)^(22). Samples were dissolved in de-ionized water and each sample was measured at two different dilutions by flameless Zeeman atomic absorption spectrometer (FAAS). The calibration curves included 5 standards of K2PtCl4 stock solution with concentrations ranging from 50 to 250 ng platinum per ml. Platinum content was expressed as picomoles platinum per 1*10^6 cells.
(§6) The Pt content associated with the cells was measured by Atomic Absorption Spectroscopy (AAS).

C-26 cells [3] = assay: Platinum complex intracellular accumulation (FAAS); type: cell-based, human; conditions: C-26, 24 hr
Method: as §5, §6

OV-1063 cells [4] = assay: Determination of Pt-DNA adducts by FAAS; type: cell-based, human; conditions: OV-1063, 24 hr
Method: (§7) Cells were seeded for 48 hr before one of the drugs was added to the culture medium. After 24 hr of exposure, the complexes were removed and the cells washed twice with ice-cold PBS and pelleted. DNA from platinum-containing material (2*10^6 cells) was extracted from the cell pellet by QIAamp DNA Blood Kit (QIAGEN, Germany) according to the manufacture instructions. DNA yield was determined by measuring the concentration of DNA in the eluate by absorbance at 260 nm.

C-26 cells [5] = assay: Determination of Pt-DNA adducts by FAAS; type: cell-based, human; conditions: C-26, 24 hr
Method: as §7

C-26 cells [6] = type: cell-based; conditions: C-26 cells, mean ± SD
Method: as §3, §4

[7] = listed as cis-[PtCl2(NH3)(pip)]
[8] = 4 h exposure, read-out: IC50, 4 h
[9] = 24 h exposure, read-out: IC50, 24 h
[10] = 72 h exposure, read-out: IC50, 72 h
[11] = listed as cis-[PtCl2(NH3)(pic)]

Row | Compound | t1/2 half time of the binding to calf thymus DNA (calf thymus DNA) [min] | IC50 (41M) [µM] | IC50 (CH1cisR) [µM] | resistance factor (IC50 resistant/IC50 sensitive) (CH1cisR) | IC50 (A2780cisR) [µM] | resistance factor (IC50 resistant/IC50 sensitive) (A2780cisR) | IC50 (CH1) [µM] | IC50 (A2780) [µM] | resistance factor (IC50 resistant/IC50 sensitive) (41McisR) | IC50 (41McisR) [µM] | % IEC/adduct, frequency of interstrand crosslinks (calf thymus DNA) [%] | unwinding angle per adduct (calf thymus DNA) [°] | ΔTm, 0.01M Na+ (calf thymus DNA) | ΔTm, 0.2 M (calf thymus DNA) | further results
1 | C1CCNCC1.C1CCNCC1.[Cl][Pt][Cl] [Complex 6, Trans-[PtCl2(piperidine)2]] |  |  |  |  |  |  |  |  |  |  |  |  |  |  | IC50 (CH1; listed as trans-PtCl2(pip)2): 35 ± 2 µM
2 | C1CCNCC1.N.[Cl][Pt][Cl] [Complex 7, cis-[PtCl2(NH3)(piperidine)]] | 113 | 64 ± 5 | 263 ± 17 | (7.3) | 234 ± 17 | 9 | 36 ± 4 | 26 ± 3 | (4.9) | 315 ± 24 |  |  |  |  | % IEC/adduct, frequency of interstrand crosslinks (calf thymus DNA; [7]): 5%; unwinding angle per adduct (calf thymus DNA; [7]): 13.2°; ΔTm, 0.01M Na+ (calf thymus DNA; [7]): −2.5 0.C; ΔTm, 0.2 M (calf thymus DNA; [7]): −6.0 0.C; ΔΔεmax, maximum of the positive CD band at around 275 nm (calf thymus DNA; [7]): 0.93
3 | C1CNCCN1.Cl.N.[Cl][Pt][Cl] [Complex 8, Trans-[PtCl2(NH3)(piperazine)].HCl] | 20 | 52 ± 5 | 34 ± 4 | 2.8 | 44 ± 4 | 8.8 | 12 ± 3 | 5 ± 1 | 3.0 | 155 ± 12 | 13 | 26.4 | 6.3 0.C | −1.9 0.C | ΔΔεmax, maximum of the positive CD band at around 275 nm (calf thymus DNA): 0.01
4 | C1CNCCN1.C1CNCCN1.Cl.[Cl][Pt][Cl] [Complex 14, Trans-[PtCl2(piperazine)(piperazine)].HCl] |  | 43 ± 3 | 53 ± 3 | 2.0 | 43 ± 3 | 2.5 | 26 ± 2 | 17 ± 3 | 3.6 | 153 ± 10 |  |  |  |  | 
5 | C1CNCCN1.Cl.N.[Cl][Pt@SP1][Cl] [Complex 16, cis-[PtCl2(NH3)(piperazine)].HCl] | 35 | 46 ± 3 | 56 ± 3 | 2.0 | 25 ± 2 | 2.5 | 28 ± 2 | 10 ± 1 | 2.4 | 112 ± 12 | 6 | 13 | 3.5 0.C | −4.5 0.C | 
6 | N.N.[Cl][Pt+2][Cl] [Transplatin, trans-[PtCl2(NH3)2], reference compound] | 100 | > 200 | > 200 |  | > 200 |  | > 200 | > 200 |  | > 200 | 12 | 9.4 | +8.7 0.C | +0.6 0.C | IC50 (OV-1063 cells [1]; [8]): 81 ± 4.3 µM; IC50 (OV-1063 cells [1]; [9]): 73 ± 5.1 µM; IC50 (OV-1063 cells [1]; [10]): 52 ± 3.2 µM; ΔΔεmax, maximum of the positive CD band at around 275 nm (calf thymus DNA): −0.34; Penetration to cells (OV-1063 cells [2]): 474 pmol Pt/1 * 10^6 cells; Penetration to cells (C-26 cells [3]): 384 pmol Pt/1 * 10^6 cells; Pt-DNA adducts (OV-1063 cells [4]): 0 pmol Pt/50 μg DNA; Pt-DNA adducts (C-26 cells [5]): 0 pmol Pt/50 μg DNA; IC50 (C-26 cells [6]; [8]): 64 ± 2 µM; IC50 (C-26 cells [6]; [9]): 46 ± 3.1 µM; IC50 (C-26 cells [6]; [10]): 41 ± 1.7 µM
7 | C1CCNCC1.C1CCNCC1.[Cl][Pt][Cl] [cis-PtCl2(pip)2, reference compound] |  | 50 ± 3 | 280 ± 12 | (8) | 250 ± 12 | (16.7) | 32 ± 2 | 15 ± 2 | 6 | 300 ± 25 |  |  |  |  | 
8 | Cc1ccncc1.N.[Cl][Pt][Cl] [cis-[PtCl2(NH3)(4-picoline)]] [reference compound] |  |  |  |  |  |  |  |  |  |  |  |  |  |  | IC50 (OV-1063 cells [1]; [8]): 6 ± 2.2 µM; IC50 (OV-1063 cells [1]; [9]): 5.1 ± 1.9 µM; IC50 (OV-1063 cells [1]; [10]): 4 ± 1.7 µM; t1/2 half time of the binding to calf thymus DNA (calf thymus DNA; [11]): 21 min; % IEC/adduct, frequency of interstrand crosslinks (calf thymus DNA; [11]): 4%; unwinding angle per adduct (calf thymus DNA; [11]): 12°; ΔTm, 0.01M Na+ (calf thymus DNA; [11]): +1.6 0.C; ΔTm, 0.2 M (calf thymus DNA; [11]): −4.8 0.C; ΔΔεmax, maximum of the positive CD band at around 275 nm (calf thymus DNA; [11]): 0.92; IC50 (C-26 cells [6]; [8]): 5.1 ± 1.2 µM; IC50 (C-26 cells [6]; [9]): 4.7 ± 2.4 µM; IC50 (C-26 cells [6]; [10]): 3.7 ± 1.6 µM
9 | Cc1ccncc1.N.[Cl][Pt][Cl] [trans-[PtCl2(NH3)(4-picoline)]] [reference compound] | 50 |  |  |  |  |  |  |  |  |  | 40 | 39.6 | +7.2 0.C | +0.6 0.C | IC50 (OV-1063 cells [1]; [8]): 18 ± 3.7 µM; IC50 (OV-1063 cells [1]; [9]): 16 ± 3.5 µM; IC50 (OV-1063 cells [1]; [10]): 14 ± 2.3 µM; ΔΔεmax, maximum of the positive CD band at around 275 nm (calf thymus DNA): −0.29; IC50 (C-26 cells [6]; [8]): 12 ± 1.2 µM; IC50 (C-26 cells [6]; [9]): 11 ± 2 µM; IC50 (C-26 cells [6]; [10]): 11 ± 1.1 µM
10 | Trans-[PtCl2(isopropylamine)(piperazine)].HCl [Complex 9] |  | 38 ± 3 | 50 ± 3 | 5.0 | 30 ± 2 | 2.1 | 10 ± 1 | 14 ± 1 | 3.2 | 122 ± 8 |  |  |  |  | 
11 | Trans-[PtCl2(n-butylamine)(piperazine)].HCl [Complex 10] |  | 32 ± 5 | 19 ± 3 | 1.1 | 28 ± 2 | 1.8 | 17 ± 2 | 16 ± 2 | 1.5 | 48 ± 3 |  |  |  |  | 
12 | Trans-[PtCl2(piperidine)(piperazine)].HCl [Complex 12] |  | 37 ± 4 | 85 ± 7 | 3.9 | 64 ± 5 | 3.6 | 22 ± 3 | 18 ± 2 | 3.2 | 118 ± 9 |  |  |  |  | 
13 | trans-PtCl2(NH3)(4-pip)Cl2 |  | 27 ± 2 | 94 ± 6 | (6.3) | 20 ± 2 | 4.0 | 15 ± 2 | 5 ± 0.7 | 5.5 | 150 ± 8 |  |  |  |  | 
